Assay [1] concerns HL-60. Kind of assay: Antiproliferative activity against human HL60 cells at 10 umole. It is filed as functional.
The subject of assay [2] is KB. Kind of assay: Antiproliferative activity against human KB cells at 10 umole. It is filed as functional.
A short description of assay [3]: Inhibition of post acidic-like activity of 20S proteasome.
The nature of assay [4]: Inhibition of trypsin-like activity of 20S proteasome.
The test system of assay [5] is Bel-7402. Description: Antiproliferative activity against human Bel7402 cells at 10 umole. The format is functional.
Assay [6] concerns BGC-823. Kind of assay: Antiproliferative activity against human BGC823 cells at 10 umole. It is filed as functional.
A short description of assay [7]: Inhibition of chymotrypsin-like activity of 20S proteasome.

`CCOC(=O)/C=C/[C@H](Cc1ccccc1)NC(=O)[C@@H](NC(=O)OC(C)(C)C)[C@@H](C)CC`: the Activity in assay [1] was 29.56%; in assay [2], -0.18%; in assay [5], -7.74%; in assay [6], 24.14%. Further, the IC50 in assay [3], in assay [4] and in assay [7] was more than 100 µmol in each case.
`CCOC(=O)/C=C/[C@H](Cc1ccccc1)NC(=O)[C@H](Cc1ccccc1)NC(=O)OC(C)(C)C`: the Activity in assay [1] is 25.73%; in assay [2] it was -4.66%; in assay [5], -3.61%; in assay [6], 20.9%. For the same molecule, the IC50 in assay [3], in assay [4] and in assay [7] was more than 100 µmol each time.
As to `CCOC(=O)/C=C/[C@H](C[C@@H]1CCNC1=O)NC(=O)[C@H](CC(C)C)NC(=O)[C@@H](NC(=O)[C@@H](NC(=O)OC(C)(C)C)[C@@H](C)CC)[C@@H](C)O`, the Activity in assay [1] was -2.32%; in assay [2], 4.3%; in assay [5], -0.31%; in assay [6], 19.98%. The IC50 in assay [3], in assay [4] and in assay [7] was more than 100 µmol throughout.
Take `CCOC(=O)/C=C/[C@H](Cc1ccc(O)cc1)NC(=O)[C@H](Cc1ccccc1)NC(=O)[C@H](CC(C)C)NC(=O)OC(C)(C)C`: the Activity in assay [1] was 7.87%; in assay [2] it was -5.34%; in assay [5] it was -4.24%; in assay [6], 13.74%. For the same molecule, the IC50 in assay [3], in assay [4] and in assay [7] was more than 100 µmol throughout.
As to `CCOC(=O)/C=C/[C@H](C[C@@H]1CCNC1=O)NC(=O)[C@H](CC(C)C)NC(=O)[C@H](CO)NC(=O)[C@H](Cc1ccccc1)NC(=O)OC(C)(C)C`, the Activity in assay [1] is 4.94%; in assay [2] it was -4.17%; in assay [5] it was -0.39%; in assay [6], 14.25%. In addition, the IC50 in assay [3], in assay [4] and in assay [7] was more than 100 µmol each time.
On to `CCOC(=O)/C=C/[C@H](C[C@@H]1CCNC1=O)NC(=O)[C@H](Cc1ccccc1)NC(=O)[C@H](CC(C)C)NC(=O)OC(C)(C)C`, for which the Activity is reported as -7.61% in assay [1], -1.56% in assay [2], -1.63% in assay [5] and 13.89% in assay [6]. Besides, the IC50 in assay [3], in assay [4] and in assay [7] was more than 100 µmol throughout.
For the molecule `CCOC(=O)/C=C/[C@H](Cc1ccc(O)cc1)NC(=O)[C@H](CC(C)C)NC(=O)OC(C)(C)C`, the Activity in assay [1] is given as 5.87%; in assay [2], 1.72%; in assay [5], -10.27%; in assay [6], 17.01%. The IC50 in assay [3], in assay [4] and in assay [7] was more than 100 µmol throughout.
For the molecule `CCOC(=O)/C=C/[C@H](C[C@@H]1CCNC1=O)NC(=O)[C@H](Cc1ccc(O)cc1)NC(=O)[C@H](CC(C)C)NC(=O)[C@H](CC(C)C)NC(=O)OC(C)(C)C`, the Activity in assay [1] came to 17.73%; in assay [2], 6.64%; in assay [5] it was 7.64%; in assay [6], 28.9%. The IC50 in assay [3] was more than 100 µmol; in assay [4], more than 100 µmol; in assay [7] it was 63.41 µmol.
As for `CC(C)(C)OC(=O)N[C@@H](Cc1ccccc1)C(=O)N[C@@H](CO)C(=O)N[C@H](/C=C/C(=O)O)C[C@@H]1CCNC1=O`, the Activity in assay [1] is 31.04%; in assay [2], -15.6%; in assay [5] it was 1.66%; in assay [6], 16.9%. Also, the IC50 in assay [3], in assay [4] and in assay [7] was more than 100 µmol throughout.
`CCOC(=O)/C=C/[C@H](C[C@@H]1CCNC1=O)NC(=O)[C@@H](NC(=O)[C@@H](NC(=O)OC(C)(C)C)[C@@H](C)CC)[C@@H](C)O`: the Activity is 0.71% in assay [1], -10.29% in assay [2], -16.67% in assay [5] and 0.69% in assay [6]. Moreover, the IC50 in assay [3], in assay [4] and in assay [7] was more than 100 µmol throughout.
On to `CCOC(=O)/C=C/[C@H](Cc1ccccc1)NC(=O)[C@H](CO)NC(=O)OC(C)(C)C`, for which the Activity in assay [1] is given as 19.98%; in assay [2] it was -11.24%; in assay [5] it was -3.14%; in assay [6], 19.11%. Besides, the IC50 in assay [3], in assay [4] and in assay [7] was more than 100 µmol throughout.
Turning to `CCOC(=O)/C=C/[C@H](Cc1ccccc1)NC(=O)[C@H](Cc1ccccc1)NC(=O)[C@H](CC(C)C)NC(=O)OC(C)(C)C`, the Activity is given as 8.65% in assay [1], 4.33% in assay [2], -4.56% in assay [5] and 13.32% in assay [6]. In addition, the IC50 in assay [3], in assay [4] and in assay [7] was more than 100 µmol throughout.
On to `CCOC(=O)/C=C/[C@H](Cc1ccc(O)cc1)NC(=O)[C@H](CC(C)C)NC(=O)[C@H](CC(C)C)NC(=O)OC(C)(C)C`, for which the Activity is -2.64% in assay [1], -5.99% in assay [2], -6.95% in assay [5] and 0.02% in assay [6]. Further, the IC50 in assay [3], in assay [4] and in assay [7] was more than 100 µmol in each case.
As to `CCOC(=O)/C=C/[C@H](Cc1ccc(O)cc1)NC(=O)[C@@H](NC(=O)[C@@H](NC(=O)OC(C)(C)C)[C@@H](C)CC)[C@@H](C)O`, the Activity in assay [1] was determined as 26.5%; in assay [2], 3.76%; in assay [5], 3.1%; in assay [6] it was 14.69%. Further, the IC50 in assay [3], in assay [4] and in assay [7] was more than 100 µmol in each case.
Take `CCOC(=O)/C=C/[C@H](Cc1ccc(O)cc1)NC(=O)[C@@H](NC(=O)OC(C)(C)C)C(C)C`: the Activity in assay [1] was found to be 22.1%; in assay [2], 1.76%; in assay [5], 4.6%; in assay [6], 18.44%. Moreover, the IC50 in assay [3], in assay [4] and in assay [7] was more than 100 µmol each time.
On to `CCOC(=O)/C=C/[C@H](Cc1ccccc1)NC(=O)[C@H](CC(C)C)NC(=O)[C@H](CC(C)C)NC(=O)OC(C)(C)C`, for which the Activity in assay [1] is recorded as 6.13%; in assay [2], -1.67%; in assay [5], -12.87%; in assay [6], 9.95%. In addition, the IC50 in assay [3], in assay [4] and in assay [7] was more than 100 µmol throughout.
For the molecule `CCOC(=O)/C=C/[C@H](C[C@@H]1CCNC1=O)NC(=O)[C@H](CC(C)C)NC(=O)[C@H](CC(C)C)NC(=O)[C@H](CC(C)C)NC(=O)OC(C)(C)C`, the Activity in assay [1] worked out at 17.17%; in assay [2], 15.73%; in assay [5] it was 12.02%; in assay [6], 16.14%. For the same molecule, the IC50 in assay [3] was more than 100 µmol; in assay [4], more than 100 µmol; in assay [7] it was 48.31 µmol.
As for `CCOC(=O)/C=C/[C@H](Cc1ccccc1)NC(=O)[C@H](CC(C)C)NC(=O)OC(C)(C)C`, the Activity in assay [1] is 33.88%; in assay [2] it was -6.67%; in assay [5], 1.55%; in assay [6] it was 30.21%. Moreover, the IC50 in assay [3], in assay [4] and in assay [7] was more than 100 µmol throughout.
Take `CCOC(=O)/C=C/[C@H](Cc1ccc(O)cc1)NC(=O)[C@@H](NC(=O)OC(C)(C)C)[C@@H](C)CC`: the Activity amounted to 21.66% in assay [1], 5.27% in assay [2], 3.32% in assay [5] and 23.06% in assay [6]. The IC50 in assay [3], in assay [4] and in assay [7] was more than 100 µmol in each case.
For `CCOC(=O)/C=C/[C@H](Cc1ccccc1)NC(=O)[C@@H](NC(=O)[C@@H](NC(=O)OC(C)(C)C)[C@@H](C)CC)[C@@H](C)O`, the Activity in assay [1] is 8.17%; in assay [2] it was 10.75%; in assay [5] it was -1.79%; in assay [6], 13.62%. The IC50 in assay [3], in assay [4] and in assay [7] was more than 100 µmol in each case.
Consider `CC(C)(C)OC(=O)N[C@@H](Cc1ccccc1)C(=O)N[C@@H](CO)C(=O)N[C@H](/C=C/C(=O)O)Cc1ccc(O)cc1`, for which the Activity turned out to be 13.37% in assay [1], 7.44% in assay [2], 3.39% in assay [5] and 10.28% in assay [6]. The IC50 in assay [3], in assay [4] and in assay [7] was more than 100 µmol each time.
As for `CCOC(=O)/C=C/[C@H](C[C@@H]1CCNC1=O)NC(=O)[C@H](CC(C)C)NC(=O)[C@H](CC(C)C)NC(=O)OC(C)(C)C`, the Activity in assay [1] is 36.97%; in assay [2], -14.03%; in assay [5], -2.4%; in assay [6], 21.44%. The IC50 in assay [3], in assay [4] and in assay [7] was more than 100 µmol throughout.

Values taken from ChEMBL document CHEMBL1142376, “Novel CADD-based peptidyl vinyl ester derivatives as potential proteasome inhibitors” (Bioorg Med Chem Lett, 2008).
